The results in this text go back to publication PMC11071220, “Identification and characterization of a new potent inhibitor targeting CtBP1/BARS in melanoma cells” (Journal of Experimental & Clinical Cancer Research : CR, 2024).

The target of assay [1] is T1, CtBP1/BARS (Rattus norvegicus, UniProt Q9Z2F5). Put plainly: size-exclusion chromatography (dimer to tetramer shift, […] NAD+); pull-down of self-association. It counts as biochemical.
Assay [2] has as its target T1, CtBP1/BARS. Put plainly: ITC; also tryptophan fluorescence quenching (Kd […]). It counts as binding. The arrangement: His-CtBP1/BARS wt, full-length (CtBP1-S/BARS). (ITC needs no label: the signal is the heat of the interaction.)

SMILES strings stand for the structures.

In the case of `NC(=O)c1ccc[n+]([C@@H]2O[C@H](COP(=O)([O-])OP(=O)(O)OC[C@H]3O[C@@H](n4cnc5c(N)ncnc54)[C@H](O)[C@@H]3O)[C@@H](O)[C@H]2O)c1` [NAD+], the “size-exclusion chromatography (dimer to tetramer shift, 100 μM NAD+); pull-down” value on CtBP1/BARS [1] is “The addition of NAD^+ shifts the elution patterns so that the majority of CtBP1/BARS elutes as a tetramer”. For orientation: Kd means the constant that tells how readily two partners part at equilibrium. The low end stands for a tighter complex, the high end for a looser complex. Consider `O=C(Nc1ccc([N+](=O)[O-])cc1)Nc1ccc(S(=O)(=O)Nc2ccc(Cl)c(Cl)c2)cc1` [Comp.11, N-(3,4-dichlorophenyl)-4-{[(4-nitrophenyl)carbamoyl]amino}benzenesulfonamide], for which, at CtBP1/BARS [2], the Kd came out at 660 ± 200 nM.
